According to US12655150B2 (Cedilla Therapeutics, Inc., priority 2021, dated 2026):

What follows are compounds tested on NCI-H226 (assay: 72H TEAD Proliferation Assay (Cell Titer Glo 2.0)). Conditions: Homo sapiens, CTG 2.0, cell line not given (NCI-H226 responsive, NCI-H28 non-responsive).
Assay type: cell-based
Summary of the method: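 Growth read-out is ATP luminescence (CellTiter-Glo 2.0) after 72 h compound exposure, corrected for no-CTG background and day-0 values, with GI50 from nonlinear regression. Sensitive line NCI-H226 (NF2-deficient); non-responsive NCI-H28 (NF2 wild type) distinguishes TEAD-driven from nonspecific growth inhibition.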

Row | Compound | GI50
1 | O=C(/C=C/CF)NCc1nc(-c2ccc(C(F)(F)F)cc2)c2cccnc2n1 [I-308, (E)-4-fluoro-N-((4-(4-(trifluoromethyl)phenyl)pyrido[2,3-d]pyrimidin-2-yl)methyl)but-2-enamide] | ≤ 1000 nM

Same assay, conditions: Homo sapiens, NCI-H226, 72 h, CTG 2.0, cell line not given (NCI-H226 responsive, NCI-H28 non-responsive)

Row | Compound | GI50
2 | O=C(O)c1ccc2c(C3CCOCC3)cc(-c3ccc(C(F)(F)F)cc3)nc2c1 [I-390, 4-(tetrahydro-2H-pyran-4-yl)-2-(4-(trifluoromethyl)phenyl)quinoline-7-carboxylic acid] | 5000 to 10000 nM
3 | CC(C)c1cc(-c2ccc(C(F)(F)F)cc2)nc2cc(C(=O)N[C@H](C)CO)ccc12 [I-426, (R)—N-(1-hydroxypropan-2-yl)-4-isopropyl-2-(4-(trifluoromethyl)phenyl)quinoline-7-carboxamide] | 1000 to 5000 nM
4 | O=C(O)c1ccc2c(c1)nc(-c1ccc(C(F)(F)F)cc1)c1cc(OC(F)F)cn12 [I-275, 2-(difluoromethoxy)-4-(4-(trifluoromethyl)phenyl)pyrrolo[1,2-a]quinoxaline-7-carboxylic acid] | ≤ 1000 nM
5 | COc1cc(-c2ccc(C(F)(F)F)cc2)nc2cc(C(=O)NCCC(=O)C(F)(F)F)ccc12 [I-362, 4-Methoxy-N-(4,4,4-trifluoro-3-oxobutyl)-2-(4-(trifluoromethyl)phenyl)quinoline-7-carboxamide] | 1000 to 5000 nM
6 | O=C(O)c1ccc2c(c1)nc(-c1ccc(C(F)(F)F)cc1)c1c(F)ccn12 [I-280, 3-fluoro-4-(4-(trifluoromethyl)phenyl)pyrrolo[1,2-a]quinoxaline-7-carboxylic acid] | ≤ 1000 nM
7 | O=C(O)c1ccc2c(c1)nc(N1CCC3(CCCCC3)C1)c1cccn12 [I-28, 4-(2-Azaspiro [4.5]decan-2-yl) pyrrolo[1,2-a] quinoxaline-7-carboxylic acid] | 1000 to 5000 nM
8 | Cc1cc(-c2ccc(C(C)(C)C)cc2)nc2cc(C(=O)O)ccc12 [I-88, 2-(4-(tert-Butyl)phenyl)-4-methylquinoline-7-carboxylic acid] | 1000 to 5000 nM
9 | COc1cc(-c2ccc(C(F)(F)F)cn2)nc2cc(C(=O)O)ccc12 [I-361, 4-methoxy-2-(5-(trifluoromethyl)pyridin-2-yl)quinoline-7-carboxylic acid] | 1000 to 5000 nM
10 | O=C(O)c1ccc2c(c1)nc(N1CCCC1)c1cccn12 [I-15, 4-(Pyrrolidin-1-yl)pyrrolo[1,2-a]quinoxaline-7-carboxylic acid] | > 10000 nM
11 | C=CC(=O)NCc1nc(-c2ccc(C(F)(F)F)cc2)cc2nccn12 [I-322, N-((7-(4-(Trifluoromethyl)phenyl)imidazo[1,2-c]pyrimidin-5-yl)methyl)acrylamide] | ≤ 1000 nM
12 | C=CC(=O)NCc1nc(-c2ccc(C(F)(F)F)cc2)c2ccncc2n1 [I-309, N-((4-(4-(trifluoromethyl)phenyl)pyrido[3,4-d]pyrimidin-2-yl)methyl)acrylamide] | ≤ 1000 nM
13 | CC(CO)NC(=O)c1ccc2c(c1)nc(-c1ccc(C(C)(C)C)cc1)c1cccn12 (stereo not shown) [I-186, 4-(4-(tert-butyl)phenyl)-N-(1-hydroxypropan-2-yl)pyrrolo[1,2-a]quinoxaline-7-carboxamide] | 1000 to 5000 nM
14 | CC(C)(C)c1ccc(-c2nc3cc(NC(=O)CO)ccc3n3cccc23)cc1 [I-203, N-(4-(4-(tert-butyl)phenyl)pyrrolo[1,2-a]quinoxalin-7-yl)-2-hydroxyacetamide] | 1000 to 5000 nM
15 | COc1cc(-c2ccc(C(F)(F)F)cc2)nc2cc(C(=O)N[C@@H](CO)c3ccc(O)cc3)ccc12 [I-363, (R)—N-(2-hydroxy-1-(4-hydroxyphenyl)ethyl)-4-methoxy-2-(4-(trifluoromethyl)phenyl)quinoline-7 carboxamide] | ≤ 1000 nM
16 | O=C(O)c1ccc2c(c1)nc(C1CCOCC1)c1nccn12 [I-69, 4-(Tetrahydro-2H-pyran-4-yl)imidazo[1,2-a]quinoxaline-7-carboxylic acid] | > 10000 nM
17 | CC(C)(C)c1ccc(-c2nc3cc(NC(=O)c4ccccn4)ccc3n3cccc23)cc1 [I-207, N-(4-(4-(tert-butyl)phenyl)pyrrolo[1,2-a]quinoxalin-7-yl)picolinamide] | 5000 to 10000 nM
18 | Cc1cc(-c2ccc(C(F)(F)F)cc2)nc2cc(C(=O)NC(C)CO)ccc12 (stereo not shown) [I-260, N-(1-hydroxypropan-2-yl)-4-methyl-2-(4-(trifluoromethyl)phenyl)quinoline-7-carboxamide] | ≤ 1000 nM
19 | CC(O)C(=O)Nc1ccc2c(c1)nc(-c1ccc(C(C)(C)C)cc1)c1cccn12 (stereo not shown) [I-204, N-(4-(4-(tert-Butyl)phenyl)pyrrolo[1,2-a]quinoxalin-7-yl)-2-hydroxypropanamide] | 1000 to 5000 nM
20 | C=CC(=O)NCc1cn2ccnc2c(Nc2ccc(C(F)(F)F)cn2)n1 [I-170, N-((8-((5-(trifluoromethyl)pyridin-2-yl)amino)imidazo[1,2-a]pyrazin-6-yl)methyl)acrylamide] | ≤ 1000 nM
21 | CC1(C)CCN(c2nc3cc(C(=O)O)ccc3n3cccc23)CC1 [I-3, 4-(4,4-Dimethylpiperidin-1-yl)pyrrolo[1,2-a]quinoxaline-7-carboxylic acid] | 1000 to 5000 nM
22 | COc1cc(-c2ccc(C(F)(F)F)cc2)nc2cc(C(=O)N[C@@H](C)c3cccc(O)c3)ccc12 [I-349, (S)—N-(1-(3-hydroxyphenyl)ethyl)-4-methoxy-2-(4-(trifluoromethyl)phenyl)quinoline-7-carboxamide] | ≤ 1000 nM
23 | C=CC(=O)Nc1ccc2c(C)cc(-c3ccc(C(F)(F)F)cc3)nc2c1 [I-85, N-(4-Methyl-2-(4-(trifluoromethyl)phenyl)quinolin-7-yl)acrylamide] | ≤ 1000 nM
24 | C=CC(=O)NCc1cn2nccc2c(-c2ccc(C(F)(F)F)cc2)n1 [I-316, N-((4-(4-(trifluoromethyl)phenyl)pyrazolo[1,5-a]pyrazin-6-yl)methyl)acrylamide] | ≤ 1000 nM

More lines, now with the values ahead:

Row | GI50 | Compound
25 | 5000 to 10000 nM | C=CC(=O)Nc1ncc2c(ccn2-c2ccc(C(C)(C)C)cc2)n1 [I-100, N-(5-(4-(tert-butyl)phenyl)-5H-pyrrolo[3,2-d]pyrimidin-2-yl)acrylamide]
26 | 1000 to 5000 nM | CC(=O)Nc1ccc2c(c1)nc(-c1ccc(C(C)(C)C)cc1)c1nccn12 [I-135, N-(4-(4-(tert-butyl)phenyl)imidazo[1,2-a]quinoxalin-7-yl)acetamide]
27 | ≤ 1000 nM | COc1cc(-c2ccc(C(F)(F)F)cc2)nc2cc(S(C)(=O)=O)ccc12 [I-415, 4-methoxy-7-(methylsulfonyl)-2-(4-(trifluoromethyl)phenyl)quinoline]
28 | ≤ 1000 nM | C=CC(=O)NCc1cn2ccnc2c(-c2ccc(SC(F)(F)F)cc2)n1 [I-448, N-((8-(4-((trifluoromethyl)thio)phenyl)imidazo[1,2-a]pyrazin-6-yl)methyl)acrylamide]
29 | ≤ 1000 nM | C=C(F)C(=O)NCc1cc2ccccc2c(-c2ccc(C(F)(F)F)cc2)n1 [I-168, 2-Fluoro-N-((1-(4-(trifluoromethyl)phenyl)isoquinolin-3-yl)methyl)acrylamide]
30 | > 10000 nM | CC1(C)C2CN(c3nc4cc(C(=O)O)ccc4n4cccc34)CC21 (stereo not shown) [I-31, 4-(6,6-Dimethyl-3-azabicyclo[3.1.0]hexan-3-yl)pyrrolo[1,2-a]quinoxaline-7-carboxylic acid]
31 | ≤ 1000 nM | Cc1cc(-c2ccc(C(F)(F)F)cc2)nc2cc(C(=O)N[C@@H](C)c3cccc(O)c3)ccc12 [I-269, (S)—N-(1-(3-hydroxyphenyl)ethyl)-4-methyl-2-(4-(trifluoromethyl)phenyl)quinoline-7-carboxamide]
32 | ≤ 1000 nM | CC(C)(C)c1ccc(-c2nc3cc(C(=O)O)cnc3n3cccc23)cc1 [I-139, 6-(4-(tert-Butyl)phenyl)pyrido[3,2-e]pyrrolo[1,2-a]pyrazine-3-carboxylic acid]
33 | > 10000 nM | O=C(O)c1ccc2c(c1)nc(N1CCC3(CCCC3)CC1)c1nccn12 [I-57, 4-(8-Azaspiro[4.5]decan-8-yl)imidazo[1,2-a]quinoxaline-7-carboxylic acid]
34 | > 10000 nM | O=C(O)c1ccc2c(c1)nc(N1CCC(c3ccccc3)CC1)c1cccn12 [I-13, 4-(4-Phenylpiperidin-1-yl)pyrrolo[1,2-a]quinoxaline-7-carboxylic acid]
35 | 1000 to 5000 nM | C=CC(=O)Nc1ccc2cnc(-c3ccc(F)cc3)nc2c1 [I-82, N-(2-(4-Fluorophenyl)quinazolin-7-yl)acrylamide]
36 | 1000 to 5000 nM | O=C(O)c1ccc2c(c1)nc(N1CCN(C3CC3)CC1)c1cccn12 [I-40, 4-(4-Cyclopropylpiperazin-1-yl) pyrrolo[1,2-a]quinoxaline-7-carboxylic acid]
37 | > 10000 nM | O=C(O)c1ccc2c(c1)nc(C1CCC1)c1cccn12 [I-113, 4-Cyclobutylpyrrolo[1,2-a]quinoxaline-7-carboxylic acid]
38 | 1000 to 5000 nM | CC(C)c1cc(-c2ccc(C(F)(F)F)cc2)nc2cc(C(=O)O)ccc12 [I-425, 4-isopropyl-2-(4-(trifluoromethyl)phenyl)quinoline-7-carboxylic acid]
39 | 1000 to 5000 nM | CC(C)(C)c1ccc(-c2nc(/C=C/C(=O)O)cn3ccnc23)cc1 [I-152, (E)-3-(8-(4-(tert-butyl)phenyl)imidazo[1,2-a]pyrazin-6-yl)acrylic acid]
40 | 1000 to 5000 nM | COC/C=C/C(=O)NCc1cn2ccnc2c(-c2ccc(C(F)(F)F)cc2)n1 [I-219, (E)-4-methoxy-N-((8-(4-(trifluoromethyl)phenyl)imidazo[1,2-a]pyrazin-6-yl)methyl)but-2-enamide]
41 | ≤ 1000 nM | Cc1cc(-c2ccc(C(F)(F)F)cc2)nc2cc(C(=O)N[C@@H](C)c3cccc(C(=O)O)c3)ccc12 [I-267, (S)-3-(1-(4-methyl-2-(4-(trifluoromethyl)phenyl)quinoline-7-carboxamido)ethyl)benzoic acid]
42 | ≤ 1000 nM | C=CC(=O)NCc1cn2c(F)ccc2c(-c2ccc(C(F)(F)F)cc2)n1 [I-318, N-((6-Fluoro-1-(4-(trifluoromethyl)phenyl)pyrrolo[1,2-a]pyrazin-3-yl)methyl)acrylamide]
43 | > 10000 nM | CNC(=O)c1cn2ccnc2c(-c2ccc(C(C)(C)C)cc2)n1 [I-143, 8-(4-(tert-Butyl)phenyl)-N-methylimidazo[1,2-a]pyrazine-6-carboxamide]
